# Source: article PMC10333884, “Large‐scale phosphomimetic screening identifies phospho‐modulated motif‐based protein interactions” (Molecular Systems Biology, 2023)
# Where two headings read alike, the source gives them in different places. Non-standard residues stand in square brackets, D forms with d. Residues, ends and D or L forms follow the SMILES beside them. pT = C[C@@H](OP(=O)(O)O)[C@H](N)C(=O)O
# Assays:
# Format in all cases: binding
# MAP1LC3A = molecular target: T1, MAP1LC3A (Homo sapiens, UniProt Q9H492); assay: FP displacement assay, MAP1LC3A; conditions: for IC50: Fig 4B, MAP1LC3A ATG8, FP displacement, technical triplicates, read-out: IC50 values of displacement curves, with SEM; for Kd: read-out: KD values ± SEM
# T1 construct: GST (cleaved yes); made in house; host or cells: Escherichia coli BL21-Gold(DE3)
# MAP1LC3B = molecular target: T2, MAP1LC3B (Homo sapiens, UniProt Q9GZQ8); assay: FP displacement assay, MAP1LC3B; conditions: read-out: KD values ± SEM
# T2 construct: GST (cleaved yes); made in house; host or cells: Escherichia coli BL21-Gold(DE3)
# Description: (§1) FP experiments were performed as described previously (Kliche et al, [2021]). Shortly, in order to monitor the binding event, FITC‐labelled peptides were used (excitation 495 nm, emission: 535 nm) and the FP signal was recorded in mP on a SpectraMax iD5 Multi‐Mode Microplate Reader (Molecular Devices) by measuring the emitted light in two angels. The measurements were performed at room temperature and prepared in nonbinding black half area 96‐well microplates (Corning®; 50 μl/well). For measuring direct binding, that is saturation curves, a 1:1 dilution series of protein domain (25 μl/well) was generated in 50 mM sodium phosphate buffer pH 7.4 and the measurement performed with 5 nM FITC‐labelled peptide (25 μl/well). The buffer‐corrected values were subsequently plotted with PRISM and fitted to the quadratic equation (Gianni et al, [2005]).
# (§2) The 1:1 dilution series in this experiment was performed with the unlabelled peptide in 50 mM sodium phosphate buffer pH 7.4, so that each well‐contained unlabelled peptide (25 μl) at a certain concentration and pre‐formed complex (25 μl). The KD values of this indirectly monitored binding event were calculated as described previously (Nikolovska‐Coleska et al, [2004]). All measurements were at least in technical triplicates as well as biological duplicates when indicated. An amplitude shift between repeat measurements in the displacement experiments was occasionally observed due to variations in the protein preparations. If that was the case, the “active” protein concentration was back‐calculated according to the quadratic equation from the saturation curves performed in parallel. By comparing the active protein concentrations in the complex between different protein preparations, the amplitude was normalised.
# GABARAPL2 = molecular target: T3, GABARAPL2 (Homo sapiens, UniProt P60520); assay: FP displacement assay, GABARAPL2
# T3 construct: GABARAPL2_ATG8__P60520_2_115; GST (cleaved yes); made in house; host or cells: Escherichia coli BL21-Gold(DE3)
# Description: as §1, §2
# KPNA4 ARM minor = molecular target: T4, KPNA4 ARM minor (Homo sapiens, UniProt O00629); assay: FP displacement assay, KPNA4 ARM minor pocket; conditions: for IC50: Fig 3E, KPNA4 ARM minor, technical triplicates, read-out: IC50 values of displacement curves, with SEM; for Kd: minor pocket probe FITC-NCOR2 5 nM, 50 mM sodium phosphate pH 7.4, room temperature, at least three technical replicates, read-out: KD values ± SEM
# T4 construct: 60-487; GST (cleaved yes); made in house; host or cells: Escherichia coli BL21-Gold(DE3)
# Description: as §1, §2
# KPNA4 ARM Major = molecular target: T5, KPNA4 ARM Major (Homo sapiens, UniProt O00629); assay: FP displacement assay, KPNA4 ARM major pocket; conditions: for IC50: Fig 3E, KPNA4 ARM major, technical triplicates, read-out: IC50 values of displacement curves, with SEM; for Kd: major pocket probe FITC-MYC 5 nM, 50 mM sodium phosphate pH 7.4, room temperature, at least three technical replicates, read-out: KD values ± SEM
# T5 construct: 60-487; GST (cleaved yes); made in house; host or cells: Escherichia coli BL21-Gold(DE3)
# Description: as §1, §2
# T4 sequence (O00629 60-487): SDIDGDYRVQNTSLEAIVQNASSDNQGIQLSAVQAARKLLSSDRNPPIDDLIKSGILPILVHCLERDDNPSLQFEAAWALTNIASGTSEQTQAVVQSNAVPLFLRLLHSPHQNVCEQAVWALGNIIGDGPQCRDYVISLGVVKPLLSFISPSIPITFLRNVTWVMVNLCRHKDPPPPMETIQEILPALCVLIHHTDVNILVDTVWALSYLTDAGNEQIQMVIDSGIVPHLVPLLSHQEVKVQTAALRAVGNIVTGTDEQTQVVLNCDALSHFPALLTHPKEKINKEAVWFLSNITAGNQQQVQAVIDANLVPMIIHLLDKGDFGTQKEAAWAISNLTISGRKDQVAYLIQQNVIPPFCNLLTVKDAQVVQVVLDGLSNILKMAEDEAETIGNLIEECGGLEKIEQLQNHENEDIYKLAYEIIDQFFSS
# T5 sequence (O00629 60-487): as above
# T3 sequence (P60520 2-115): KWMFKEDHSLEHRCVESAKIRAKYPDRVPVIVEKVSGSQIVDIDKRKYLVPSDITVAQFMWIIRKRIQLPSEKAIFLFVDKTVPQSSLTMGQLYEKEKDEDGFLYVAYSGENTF
SMILES,IC50 (MAP1LC3A) [µM],Kd (MAP1LC3A) [µM],Kd (MAP1LC3B) [µM],Kd (GABARAPL2; read-out: KD values ± SEM) [µM],IC50 (KPNA4 ARM minor) [µM],Kd (KPNA4 ARM minor) [µM],IC50 (KPNA4 ARM Major) [µM],Kd (KPNA4 ARM Major) [µM],other results
CC(=O)N[C@@H](Cc1ccc(O)cc1)C(=O)N[C@@H](CCCCN)C(=O)N[C@@H](CCCCN)C(=O)N[C@@H](CCC(N)=O)C(=O)N[C@@H](CC(C)C)C(=O)N[C@@H](CCCCN)C(=O)N[C@@H](CCCNC(=N)N)C(=O)N[C@@H](Cc1ccccc1)C(=O)N[C@@H](COP(=O)(O)O)C(=O)N[C@H](C(=O)N[C@@H](CCC(=O)O)C(=O)N[C@@H](CCC(=O)O)C(=O)N[C@@H](Cc1ccccc1)C(=O)N[C@H](C(=O)N[C@@H](CC(C)C)C(=O)N[C@@H](CC(C)C)C(=O)O)C(C)C)[C@@H](C)O [ATG4C444–458 pS],5.5 ± 0.7,1.3 ± 0.1,1.9 ± 0.3,0.1 ± 0.2,,,,,
CC(=O)N[C@@H](Cc1ccc(O)cc1)C(=O)N[C@@H](CCCCN)C(=O)N[C@@H](CCCCN)C(=O)N[C@@H](CCC(N)=O)C(=O)N[C@@H](CC(C)C)C(=O)N[C@@H](CCCCN)C(=O)N[C@@H](CCCNC(=N)N)C(=O)N[C@@H](Cc1ccccc1)C(=O)N[C@@H](CO)C(=O)N[C@H](C(=O)N[C@@H](CCC(=O)O)C(=O)N[C@@H](CCC(=O)O)C(=O)N[C@@H](Cc1ccccc1)C(=O)N[C@H](C(=O)N[C@@H](CC(C)C)C(=O)N[C@@H](CC(C)C)C(=O)O)C(C)C)[C@@H](C)O [ATG4C444–458 wt],17 ± 1,5.2 ± 0.2,7.1 ± 0.6,0.8 ± 0.4,,,,,
CC(=O)N[C@@H](C)C(=O)N[C@@H](CC(N)=O)C(=O)N[C@@H](CO)C(=O)N[C@@H](Cc1c[nH]c2ccccc12)C(=O)N[C@@H](CCC(N)=O)C(=O)N[C@@H](CC(C)C)C(=O)N[C@H](C(=O)N[C@@H](CCC(=O)O)C(=O)N[C@H](C(=O)N1CCC[C@H]1C(=O)N[C@@H](CCC(=O)O)C(=O)N[C@@H](CCCCN)C(=O)N[C@@H](CCCNC(=N)N)C(=O)N[C@@H](CCCCN)C(=O)N[C@@H](CCC(=O)O)C(=O)N[C@@H](CCC(=O)O)C(N)=O)[C@@H](C)OP(=O)(O)O)C(C)C [DLGAP4_907–922 pS] (Ac-ANSWQLVE[pT]PEKRKEE-NH2),,,,,,,,,Kd (GABARAPL2): 150 ± 32 µM
CC(=O)N[C@@H](C)C(=O)N[C@@H](CC(N)=O)C(=O)N[C@@H](CO)C(=O)N[C@@H](Cc1c[nH]c2ccccc12)C(=O)N[C@@H](CCC(N)=O)C(=O)N[C@@H](CC(C)C)C(=O)N[C@H](C(=O)N[C@@H](CCC(=O)O)C(=O)N[C@H](C(=O)N1CCC[C@H]1C(=O)N[C@@H](CCC(=O)O)C(=O)N[C@@H](CCCCN)C(=O)N[C@@H](CCCNC(=N)N)C(=O)N[C@@H](CCCCN)C(=O)N[C@@H](CCC(=O)O)C(=O)N[C@@H](CCC(=O)O)C(N)=O)[C@@H](C)O)C(C)C [DLGAP4_907–922 wt] (Ac-ANSWQLVETPEKRKEE-NH2),,,,174 ± 22,,,,,
CC(=O)N[C@@H](CC(N)=O)C(=O)N[C@@H](Cc1ccc(O)cc1)C(=O)N[C@@H](C)C(=O)N1CCC[C@H]1C(=O)N1CCC[C@H]1C(=O)N[C@H](C(=O)N[C@@H](CCCCN)C(=O)N[C@@H](CCCNC(=N)N)C(=O)N[C@@H](CCC(=O)O)C(=O)N[C@@H](CCCNC(=N)N)C(=O)N[C@H](C(=O)N[C@@H](CO)C(=O)N[C@@H](CO)C(=O)N[C@@H](CC(C)C)C(=O)N[C@H](C(=O)N[C@@H](CCC(N)=O)C(N)=O)[C@@H](C)O)[C@@H](C)OP(=O)(O)O)C(C)C [RANBP3_114–129 pS (p + 5)] (Ac-NYAPPVKRER[pT]SSLTQ-NH2),,,,,800 ± 75,167 ± 9,10 ± 1,1.13 ± 0.05,
CC(=O)N[C@@H](CC(N)=O)C(=O)N[C@@H](Cc1ccc(O)cc1)C(=O)N[C@@H](C)C(=O)N1CCC[C@H]1C(=O)N1CCC[C@H]1C(=O)N[C@H](C(=O)N[C@@H](CCCCN)C(=O)N[C@@H](CCCNC(=N)N)C(=O)N[C@@H](CCC(=O)O)C(=O)N[C@@H](CCCNC(=N)N)C(=O)N[C@H](C(=O)N[C@@H](CO)C(=O)N[C@@H](CO)C(=O)N[C@@H](CC(C)C)C(=O)N[C@H](C(=O)N[C@@H](CCC(N)=O)C(N)=O)[C@@H](C)O)[C@@H](C)O)C(C)C [RANBP3_114–129 wt] (Ac-NYAPPVKRERTSSLTQ-NH2),,,,,325 ± 34,68 ± 4,1.3 ± 0.2,0.15 ± 0.01,
